Article PMC6857474, “Differential Effects of the Mitochondria-Active Tetrapeptide SS-31 (D-Arg-dimethylTyr-Lys-Phe-NH2) and Its Peptidase-Targeted Prodrugs in Experimental Acute Kidney Injury” (Frontiers in Pharmacology, 2019)
Blank lines part the entries; values can stand above or below the compound they belong to.

Legend:
[1] = test system: BALB/c male mice; assay: Adriamycin (ADR)-induced glomerular damage model; type: in vivo, mouse; conditions: ADR 1 x 10 mg/kg i.p. alone, at the time of sacrifice
Description: (§1) All experiments were conducted in accordance with federal and local regulations, according to a protocol approved by the animal ethics committee of the Canton de Vaud, Switzerland (No. 2655.0). Kidney injury was induced by intraperitoneal (i.p.) injection of AA (Sigma-Aldrich, 1 × 5 mg/kg) or ADR (Adriblastin, Pfizer, 1 × 10 mg/kg) in 10-week-old BALB/c male mice (n = 5–7 mice/experimental group). SS-31 analogs were diluted in 0.9% NaCl and administered i.p. once a day, starting 1 day before the disease-inducing drugs (day −1) at a dose of 3 mg/kg and then daily until day 6. The animals were weighted at days 0, 3, and 6, and sacrificed at day 7. The level of protein in urine was semi-quantitatively assessed using Albustix reagent strips (Bayer, Basel, Switzerland). At the end of the treatment period, the mice were sacrificed to remove both kidneys. The kidneys were spliced in four equal fragments containing the cortex and medulla. One fragment was immediately snap-frozen in liquid nitrogen for real-time quantitative polymerase chain reaction (qRT-PCR) and Western blot experiments, one fragment was included in OCT (Tissue-Tek, VWR International, Dietikon, Switzerland) and frozen for histoenzymography, one fragment was frozen at −80°C and used for pharmacokinetic (PK) measurements, and one fragment was fixed in 4% paraformaldehyde and included in paraffin for histology. […]

[2] = biological target: T1, γ-glutamyltranspeptidase (γ-GT) (Mus musculus, UniProt Q60928); assay: Histoenzymography of γ-GT activity on frozen kidney sections of ADR-treated mice; type: biochemical; conditions: kidney sections of ADR-exposed mice, γ-Glu-βNA substrate, 37°C
T1 construct: from tissue; host or cells: frozen kidney sections of ADR-treated BALB/c male mice
T1 sequence (Q60928 whole entry): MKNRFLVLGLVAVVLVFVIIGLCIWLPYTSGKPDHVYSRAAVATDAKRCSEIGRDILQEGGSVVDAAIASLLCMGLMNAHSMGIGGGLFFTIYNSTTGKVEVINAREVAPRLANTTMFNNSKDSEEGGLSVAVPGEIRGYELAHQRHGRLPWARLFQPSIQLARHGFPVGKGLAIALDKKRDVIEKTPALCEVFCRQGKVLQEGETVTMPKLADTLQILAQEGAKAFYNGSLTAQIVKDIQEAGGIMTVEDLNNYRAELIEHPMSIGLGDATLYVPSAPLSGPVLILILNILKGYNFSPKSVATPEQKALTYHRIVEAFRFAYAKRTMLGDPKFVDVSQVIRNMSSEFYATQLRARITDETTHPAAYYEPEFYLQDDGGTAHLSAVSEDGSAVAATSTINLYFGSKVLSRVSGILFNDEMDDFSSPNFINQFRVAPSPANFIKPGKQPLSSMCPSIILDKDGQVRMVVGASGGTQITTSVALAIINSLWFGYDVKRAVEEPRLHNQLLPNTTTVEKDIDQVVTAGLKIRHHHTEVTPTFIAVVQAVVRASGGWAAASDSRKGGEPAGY
Description: (§2) Enzymatic activities were evaluated by histoenzymography on OCT-embedded frozen kidneys sections (7 µm), as previously described ([Juillerat-Jeanneret et al., 1992]; [Juillerat-Jeanneret et al., 2000]; [Juillerat-Jeanneret et al., 2003]). Briefly, slides were fixed for 5 min in cold (−20°C) acetone, air dried at room temperature, rehydrated for 5 min in 0.9% NaCl, and exposed to the α-Glu-4-methoxy-β-naphtylamide (APA; Bachem) or γ-Glu-4-methoxy-β-naphtylamide (γ-GT; Serva) substrates and Fast Blue B (Sigma-Aldrich) at 37°C for 15 to 60 min until a red coloration was visible. The slides were washed in distilled water, counterstained with hematoxylin (Mayer) for 1 min, rinsed under tap water and then with Scott solution for 1 min, and mounted in Aquamount (Immu-mount; Thermo Shandon, Pittsburgh, PA, USA) and analyzed with a Nikon Eclipse E800 microscope and digital DXM1200 camera using ACT-1 software.
(§3) Sequential sections (7 µm) of frozen OCT-embedded kidneys of adriamycin (ADR)-treated mice were exposed at 37°C to β-methoxynaphthylamide (β-NA) specific substrates of aminopeptidase A (α-Glu-βNA, upper panels) or γ-glutamyltranspeptidase (γ-Glu-βNA, lower panels) and Fast Blue B, in the absence (none) or the presence of SS-31, α-Glu-SS-31 or γ-Glu-SS-31. The sections were then counterstained with light hematoxylin reagent. The enzymatic activity is visualized as a red precipitate. […]

[3] = biological target: T2, aminopeptidase A (APA) (Mus musculus, UniProt P16406); assay: Histoenzymography of APA activity on frozen kidney sections of ADR-treated mice; type: biochemical; conditions: kidney sections of ADR-exposed mice, α-Glu-βNA substrate, 37°C
T2 construct: from tissue; host or cells: frozen kidney sections of ADR-treated BALB/c male mice
T2 sequence (P16406 1-945): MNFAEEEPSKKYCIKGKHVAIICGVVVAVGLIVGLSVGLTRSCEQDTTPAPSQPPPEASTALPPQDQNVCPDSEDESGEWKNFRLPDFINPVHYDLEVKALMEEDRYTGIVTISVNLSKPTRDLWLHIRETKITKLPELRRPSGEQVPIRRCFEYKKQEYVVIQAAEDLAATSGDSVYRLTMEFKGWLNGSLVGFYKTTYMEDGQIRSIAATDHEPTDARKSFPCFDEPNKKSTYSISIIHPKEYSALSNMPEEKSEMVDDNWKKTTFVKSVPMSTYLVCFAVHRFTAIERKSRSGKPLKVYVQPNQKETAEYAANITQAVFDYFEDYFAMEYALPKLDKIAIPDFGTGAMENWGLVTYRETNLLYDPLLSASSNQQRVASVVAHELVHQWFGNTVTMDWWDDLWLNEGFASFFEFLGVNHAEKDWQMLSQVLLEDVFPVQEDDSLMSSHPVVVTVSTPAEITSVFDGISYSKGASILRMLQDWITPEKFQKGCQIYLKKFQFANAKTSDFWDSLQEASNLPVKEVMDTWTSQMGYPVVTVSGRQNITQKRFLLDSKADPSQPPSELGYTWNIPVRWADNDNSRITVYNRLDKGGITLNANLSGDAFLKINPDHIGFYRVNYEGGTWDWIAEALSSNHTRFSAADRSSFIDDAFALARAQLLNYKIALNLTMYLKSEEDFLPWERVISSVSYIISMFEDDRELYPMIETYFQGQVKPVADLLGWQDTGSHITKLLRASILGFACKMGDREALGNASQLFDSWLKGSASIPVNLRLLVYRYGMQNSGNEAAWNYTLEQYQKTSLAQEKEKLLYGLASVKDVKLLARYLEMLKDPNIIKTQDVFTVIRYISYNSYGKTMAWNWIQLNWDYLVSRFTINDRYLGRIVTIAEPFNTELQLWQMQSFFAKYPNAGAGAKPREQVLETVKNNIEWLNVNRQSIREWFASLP
Description: as §2, §3

[4] = biological target: T3, γ-glutamyltranspeptidase (γ-GT) (Rattus norvegicus, UniProt P07314); assay: γ-GT enzymatic activity in intact living EC219 cells (γ-Glu-AMC substrate); type: cell-based; conditions: 40 µM γ-Glu-AMC
T3 construct: These cells express high levels of APA and γ-GT activities and can be used to measure kinetics in living cells; endogenous in cells; host or cells: EC219 rat brain-derived endothelial cells
T3 sequence (P07314 whole entry): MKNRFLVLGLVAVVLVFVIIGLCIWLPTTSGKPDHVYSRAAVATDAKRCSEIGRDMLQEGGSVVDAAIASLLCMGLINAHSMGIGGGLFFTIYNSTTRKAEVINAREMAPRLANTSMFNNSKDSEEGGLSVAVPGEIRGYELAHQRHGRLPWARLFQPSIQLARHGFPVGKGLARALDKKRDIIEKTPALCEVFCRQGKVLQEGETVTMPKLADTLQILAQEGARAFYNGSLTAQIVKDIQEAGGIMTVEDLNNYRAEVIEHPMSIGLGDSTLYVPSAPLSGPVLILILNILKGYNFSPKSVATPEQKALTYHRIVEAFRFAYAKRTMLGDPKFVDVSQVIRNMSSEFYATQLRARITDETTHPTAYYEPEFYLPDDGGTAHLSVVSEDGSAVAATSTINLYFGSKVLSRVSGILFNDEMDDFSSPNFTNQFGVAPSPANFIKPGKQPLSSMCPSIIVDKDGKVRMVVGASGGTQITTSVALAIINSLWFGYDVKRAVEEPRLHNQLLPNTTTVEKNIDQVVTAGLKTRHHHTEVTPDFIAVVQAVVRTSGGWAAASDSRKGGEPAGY
Description: The preparation and characterization of rat brain-derived EC219 endothelial cells were previously described ([Juillerat-Jeanneret et al., 1992]). These cells express high levels of APA and γ-GT activities and can be used to measure kinetics in living cells as APA and γ-GT-positive representative cell models. The cells were grown in Dulbecco’s modified Eagle medium (DMEM) containing 1 g/L glucose, 10% heat-inactivated fetal calf serum (FCS), and antibiotics on uncoated cell culture plastic plates and flasks. […]
Stock solutions of α-Glu-AMC (APA) and γ-Glu-AMC and Gly-Gly (γ-GT) substrates, all from Bachem, were prepared at 10 mM in DMSO. […] The increase in absorbance was measured at 37°C in a thermostated fluorescence multiwell-plate reader (CytoFluor Series 4000; PerSeptive Biosystems, MA, USA) at λex = 360 nm/λem = 460 nm using the linear portion of the curves. The kinetics values were then graphically determined or according to Wu and colleagues ([Wu et al., 2011]).
(A) Intact living EC219 cells were exposed to increasing concentrations of either amastatin (left panel) or acivicin (right panel), two well-characterized enzymatic activity inhibitors of APA or γ-GT, respectively. The activities of the enzymes aminopeptidase A (APA) or γ-glutamyltranspeptidase (γ-GT) were determined using 40 µM of the substrates (S), α-Glu-AMC or γ-Glu-AMC, respectively. […] Data were analyzed graphically. […]

[5] = test system: BALB/c male mice; assay: Aristolochic acid (AA)-induced acute tubulo-interstitial kidney injury model; type: in vivo, mouse; conditions: AA 1 x 5 mg/kg i.p. alone; control group 44 ± 5
Description: as §1

Compound: COc1cccc2c1C(=O)c1c(O)c3c(c(O)c1C2=O)C[C@@](O)(C(=O)CO)C[C@@H]3O[C@H]1C[C@H](N)[C@H](O)[C@H](C)O1 [ADR, adriamycin]
mean creatinine [1]: 33 ± 5 µmol/L

enzymatic activity of γ-GT (histoenzymography) [2]: modified neither | enzymatic activity of APA (histoenzymography) [3]: not
Compound: H-γ-Glu-D-Arg-DMT-Lys-Phe-NH 2 .2TFA [γ-Glu-SS-31]

IC50 [4]: 48 µM
Compound: N[C@H](C(=O)O)[C@@H]1CC(Cl)=NO1 [acivicin]

Compound: COc1cccc2c1cc([N+](=O)[O-])c1c(C(=O)O)cc3c(c12)OCO3 [AA, aristolochic acid]
mean creatinine [5]: 258 ± 92 µmol/L
